# Patent US7973047B2, “Beta-Secretase modulators and methods of use” (Amgen Inc., priority 2010, dated 2011)
# Test system: Aβ40 in conditioned medium of cells stably expressing Amyloid Precursor Protein (APP)
# Assay: BACE cell-based assay: Aβ40 in conditioned medium by sandwich ELISA
# Settings: cell based assay data of Table 4; unit inferred; read-out: Cell Assay
# Method in brief: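 APP-stable cells grown 24 h in DMEM/10% FBS, then exposed to compounds for 24 h in a 10-point dose series starting at 100 or 10 μM, 0.1% DMSO final. Medium Aβ40 measured by pAb40/biotinylated 6E10 sandwich ELISA with Europium time-resolved fluorescence; IC50 from percent inhibition.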
row,Molecule,IC50 [nM]
1,"N-((1S,2R)-3-(((3S,4′S)-6′-(2,2-dimethylpropyl)-3′,4,4′,5-tetrahydrospiro[furan-3,2′-pyrano[2,3-b]pyridin]-4′-yl)amino)-1-((4-fluorophenyl)methyl)-2-hydroxypropyl)acetamide N-((1S,2R)-3-(((3R,4′S)-6′-(2,2-dimethylpropyl)-3′,4,4,5-tetrahydrospiro[furan-3,2′-pyrano[2,3-b]pyridin]-4′-yl)amino)-1-((4-fluorophenyl)methyl)-2-hydroxypropyl)acetamide [compound 658]",20.2

# Same assay, conditions: cell based assay data, Table 4; unit inferred; read-out: Cell Assay
row,Molecule,IC50 [nM]
1,CC(=O)N[C@@H](Cc1cccc(F)c1)[C@H](O)CN[C@H]1CC2(CCC2)Oc2cnc(CC(C)(C)F)cc21 [compound 827],25.8
2,CC(=O)N[C@@H](Cc1ccc(Cl)cc1)[C@H](O)CN[C@H]1CC2(CCC2)Oc2ncc(CC(C)(C)F)cc21 [compound 828],78.4
3,CC(=O)N[C@@H](CC1CCCN(C)C1)[C@H](O)CN[C@H]1CC2(CCC2)Oc2ncc(CC(C)(C)C)cc21 (some centres unmarked) [compound 829],2630
4,"CC(=O)N[C@@H](Cc1cncc(F)c1)[C@H](O)CN[C@H]1CC2(CCC2)Oc2ncc(CC(C)(C)C)cc21 [compound 830, N-((1S,2R)-3-(((4′S)-6′-(2,2-dimethylpropyl)-3′,4′-dihydrospiro[cyclobutane-1,2′-pyrano[2,3-b]pyridin]-4′-yl)amino)-1-((5-fluoro-3-pyridinyl)methyl)-2-hydroxypropyl)acetamide]",1.82
5,"CC(=O)N[C@@H](Cc1cncc(F)c1)[C@@H](O)CN[C@H]1CC2(CCC2)Oc2ncc(CC(C)(C)C)cc21 [compound 831, N-((1S,2S)-3-(((4′S)-6′-(2,2-dimethylpropyl)-3′,4′-dihydrospiro[cyclobutane-1,2′-pyrano[2,3-b]pyridin]-4′-yl)amino)-1-((5-fluoro-3-pyridinyl)methyl)-2-hydroxypropyl)acetamide]",167
6,COc1ccc(C[C@H](NC(C)=O)[C@H](O)CN[C@H]2CC3(CCC3)Oc3ncc(CC(C)(C)C)cc32)cc1OC [compound 832],9.28
7,CC(=O)N[C@@H](Cc1cccc(F)c1F)[C@H](O)CN[C@H]1CC2(CCC2)Oc2ncc(CC(C)(C)F)cc21 [compound 833],31
8,CC(=O)N[C@@H](Cc1ccc(F)c(Br)c1)[C@H](O)CN[C@H]1CC2(CCC2)Oc2ncc(CC(C)(C)F)cc21 [compound 834],9.31
9,CC(=O)N[C@@H](Cc1cc(F)cc(F)c1)[C@H](O)CN[C@H]1CC2(CCC2)Oc2ncc(CC(C)(C)F)cc21 [compound 835],2.05
10,CC(=O)N[C@@H](Cc1ccc(F)c(Cl)c1)[C@H](O)CN[C@H]1CC2(CCC2)Oc2ncc(CC(C)(C)F)cc21 [compound 836],14.7
11,CC(=O)N[C@@H](Cc1cc(F)cc(Cl)c1)[C@H](O)CN[C@H]1CC2(CCC2)Oc2ncc(CC(C)(C)F)cc21 [compound 837],3.58
12,CC(=O)N[C@@H](Cc1cccc(C(F)(F)F)c1)[C@H](O)CN[C@H]1CC2(CCC2)Oc2ncc(CC(C)(C)F)cc21 [compound 838],13.3
13,CC(=O)N[C@@H](Cc1ccc2c(c1)OCO2)[C@H](O)CN[C@H]1CC2(CCC2)Oc2ncc(CC(C)(C)C)cc21 [compound 839],5.49
14,CC(=O)N[C@@H](Cc1ccc2c(c1)OCO2)[C@H](O)CN[C@H]1CC2(CCC2)Oc2ncc(CC(C)(C)F)cc21 [compound 840],27.7
15,"CC(=O)N[C@@H](Cc1ccccc1)[C@H](O)CN[C@H]1CC2(CCC2)Oc2ncc(CC(F)(F)F)cc21 [compound 841, N-((1S,2R)-2-hydroxy-1-(phenylmethyl)-3-(((4′S)-6′-(2,2,2-trifluoroethyl)-3′,4′-dihydrospiro[cyclobutane-1,2′-pyrano[2,3-b]pyridin]-4′-yl)amino)propyl)acetamide]",84.8
16,CC(=O)N[C@@H](Cc1ccc(F)c(F)c1)[C@H](O)CN[C@H]1CC2(CCC2)Oc2ncc(CC(F)(F)F)cc21 [compound 842],106
17,CC(=O)N[C@@H](Cc1cccc(F)c1)[C@H](O)CN[C@H]1CC2(CCC2)Oc2ncc(CC(C)C)cc21 [compound 844],3.63
18,CC(=O)N[C@@H](Cc1ccc(F)cc1)[C@H](O)CN[C@H]1CC2(CCC2)Oc2ncc(CC(C)C)cc21 [compound 845],11.4
19,CC(=O)N[C@@H](Cc1cc(F)cc(F)c1)[C@H](O)CN[C@H]1CC2(CCC2)Oc2ncc(CC(C)C)cc21 [compound 846],1.72
20,CC(=O)N[C@@H](Cc1cc(F)cc(Cl)c1)[C@H](O)CN[C@H]1CC2(CCC2)Oc2ncc(CC(C)C)cc21 [compound 847],4.27
21,CC(=O)N[C@@H](Cc1cccc(C(N)=O)c1)[C@H](O)CN[C@H]1CC2(CCC2)Oc2ncc(CC(C)C)cc21 [compound 848],12.8
22,CC(=O)N[C@@H](Cc1cccc(C#N)c1)[C@H](O)CN[C@H]1CC2(CCC2)Oc2ncc(CC(C)C)cc21 [compound 849],1.26
23,CC(=O)N[C@@H](Cc1cccc(F)c1F)[C@H](O)CN[C@H]1CC2(CCC2)Oc2ncc(CC(C)C)cc21 [compound 850],8.68
24,CC(=O)N[C@@H](Cc1ccc(F)c(F)c1)[C@H](O)CN[C@H]1CC2(CCC2)Oc2ncc(CC(C)C)cc21 [compound 851],3.24
25,CC(=O)N[C@@H](Cc1ccccc1)[C@H](O)CN[C@H]1CC2(CCC2)Oc2nc(F)c(CC(C)C)cc21 [compound 852],52
26,CC(=O)N[C@@H](Cc1cc(F)cc(F)c1)[C@H](O)CN[C@H]1CC2(CCC2)Oc2nc(F)c(CC(C)C)cc21 [compound 853],11.2

row,Molecule,IC50 [nM]
1,CC(=O)N[C@@H](Cc1ccc(F)cc1)[C@H](O)CN[C@H]1CC2(CCC2)Oc2nc(F)c(CC(C)C)cc21 [compound 854],151
2,CC(=O)N[C@@H](Cc1cccc(F)c1)[C@H](O)CN[C@H]1CC2(CCC2)Oc2nc(F)c(CC(C)C)cc21 [compound 855],25.2
3,CC(=O)N[C@@H](Cc1cccc(F)c1F)[C@H](O)CN[C@H]1CC2(CCC2)Oc2nc(F)c(CC(C)C)cc21 [compound 856],206
4,CC(=O)N[C@@H](Cc1ccc(Cl)c(F)c1)[C@H](O)CN[C@H]1CC2(CCC2)Oc2ncc(CC(C)C)cc21 [compound 857],26.2
5,CC(=O)N[C@@H](Cc1ccc(Cl)cc1)[C@H](O)CN[C@H]1CC2(CCC2)Oc2ncc(CC(C)C)cc21 [compound 858],52.7
6,CC(=O)N[C@@H](Cc1ccc(F)cc1)[C@H](O)CN[C@H]1CC2(CCC2)Oc2ncc(C(F)C(C)C(F)(F)F)cc21 (some centres unmarked) [compound 859],148
7,CC(=O)N[C@@H](Cc1ccc(Cl)cc1)[C@H](O)CN[C@H]1CC2(CCC2)Oc2ncc(C(F)C(C)C(F)(F)F)cc21 (some centres unmarked) [compound 860],452
8,CC(=O)N[C@@H](Cc1cccc(F)c1)[C@H](O)CN[C@H]1CC2(CCC2)Oc2ncc(C(F)C(C)C(F)(F)F)cc21 (some centres unmarked) [compound 861],26.4
9,CC(=O)N[C@@H](Cc1ccccc1)[C@H](O)CN[C@H]1CC2(CCC2)Oc2ncc(C(F)C(C)C(F)(F)F)cc21 (some centres unmarked) [compound 862],74.1
10,CC(=O)N[C@@H](Cc1cccc(F)c1)[C@H](O)CN[C@H]1CC2(CCC2)Oc2ncc(C(O)C(C)C(F)(F)F)cc21 (some centres unmarked) [compound 863],1830
11,CC(=O)N[C@@H](Cc1ccc(Cl)cc1)[C@H](O)CN[C@H]1CC2(CCC2)Oc2ncc(C(O)C(C)C(F)(F)F)cc21 (some centres unmarked) [compound 864],≥ 10000
12,CC(=O)N[C@@H](Cc1ccccc1)[C@H](O)CN[C@H]1CC2(CCC2)Oc2ncc(C(O)C(C)C(F)(F)F)cc21 (some centres unmarked) [compound 865],1930
13,CC(=O)N[C@H](Cc1cccc(Cl)c1F)[C@H](O)CN[C@H]1CC2(CCC2)Oc2ncc(CC(C)(C)C)cc21 [compound 866],≥ 10000
14,CC(=O)N[C@@H](Cc1cc(Cl)ccc1F)[C@H](O)CN[C@H]1CC2(CCC2)Oc2ncc(CC(C)(C)C)cc21 [compound 867],2.33
15,CC(=O)N[C@@H](Cc1cccc(Cl)c1F)[C@H](O)CN[C@H]1CC2(CCC2)Oc2ncc(CC(C)(C)C)cc21 [compound 868],6.26
16,CC(=O)N[C@@H](Cc1cc(F)c(F)c(Cl)c1)[C@H](O)CN[C@H]1CC2(CCC2)Oc2ncc(CC(C)(C)C)cc21 [compound 869],17.9
17,CC(=O)N[C@@H](Cc1c(F)ccc(F)c1F)[C@H](O)CN[C@H]1CC2(CCC2)Oc2ncc(CC(C)(C)C)cc21 [compound 870],35.6
18,CC(=O)N[C@@H](Cc1cc(F)cc(F)c1F)[C@H](O)CN[C@H]1CC2(CCC2)Oc2ncc(CC(C)(C)C)cc21 [compound 871],2.03
19,CC(=O)N[C@@H](Cc1ccc(Br)cc1)[C@H](O)CN[C@H]1CC2(CCC2)Oc2ncc(CC(C)(C)C)cc21 [compound 872],34.5
20,COC(=O)N[C@@H](Cc1ccccc1)[C@H](O)CN[C@H]1CC2(CCC2)Oc2ncc(CC(C)(C)C)cc21 [compound 873],20.6
21,CCc1cnc2c(c1)[C@@H](NC[C@@H](O)[C@H](Cc1cc(F)cc(F)c1)NC(C)=O)CC1(CCC1)O2 [compound 874],12.1
22,CCc1cnc2c(c1)[C@@H](NC[C@@H](O)[C@H](Cc1cc(F)cc(F)c1)NC(=O)OC)CC1(CCC1)O2 [compound 875],325
23,COC(=O)N[C@@H](Cc1cc(F)cc(F)c1)[C@H](O)CN[C@H]1CC2(CCC2)Oc2ncc(CC(C)(C)C)cc21 [compound 876],10.8
24,CCC(=O)N[C@@H](Cc1ccccc1)[C@H](O)CN[C@H]1CC2(CCC2)Oc2cnc(CC(C)(C)C)cc21 [compound 877],64.1
25,CC(=O)N[C@@H](Cc1ccc(F)cc1)[C@H](O)CN[C@H]1CC2(CCC2)Oc2ncc(CC(C)(C)CO)cc21 [compound 878],236
26,"N-((1S,2R)-3-(((2R,4S)-1′-acetyl-6-ethyl-3,4-dihydrospiro[chromene-2,3′-pyrrolidin]-4-yl)amino)-2-hydroxy-1-(phenylmethyl)propyl)acetamide N-((1S,2R)-3-(((2S,4S)-1′-acetyl-6-ethyl-3,4-dihydrospiro[chromene-2,3′-pyrrolidin]-4-yl)amino)-2-hydroxy-1-(phenylmethyl)propyl)acetamide [compound 812]",1950
